{
  "source": "patent US10288604B2",
  "about": "“Method for imaging cell using fluorescence-labeled sugar derivative having coumarin derivative bound thereto, and imaging agent” (HIROSAKI UNIVERSITY, priority 2012, dated 2019)",
  "system": "tumor cell cluster composed of mouse insulinoma cells (MIN6)",
  "test": "Imaging of tumor cell cluster composed of MIN6 cells (real time laser scanning confocal microscope)",
  "assay_type": "cell-based",
  "procedure": "A culture solution prepared by suspending MIN6 cells at a proportion of 10×10^4 cells/mL was dropped in an amount of 10 μL on a glass cover slip, then, allowed to adhere to the glass surface, and 3 mL of the culture solution was added and cultured. The half quantity of the culture solution was changed every three days.\nCryopreserved MIN6 cells (cells donated from Professor Miyazaki Junichi of Osaka University and cultured 5 to 8 passages) were subjected to culture according to an ordinary method, and cultured 7 to 9 passages which were used in experiments. The half amount of the culture solution was changed every two days.\nNaCl 120.0 mM, KCl 4.75 mM, KH2 PO4 1.19 mM, MgSO4.7H2O 1.19 mM, CaCl2.2H2O 1 mM, NaHCO3 5.02 mM, D-Glucose 5.6 mM, HEPES 10 mM (adjusted to pH 7.35 with 1M NaOH). For inhibiting entrance and elimination of fluorescently labeled glucose via a gap junction/hemichannel, 0.1 mM Carbenoxolone (SIGMA #C4790) was added. The HEPES solution for image acquisition was used as a solution for preparing a 2-PBLG solution and as a solution for preparing a 2-PBLG/2-TRLG solution and 2-PBLG/2-NBDLG/2-TRLG solution.\nA glass cover slip wherein MIN6 cells had been cultured was transferred into a HEPES solution for image acquisition in a perfusion chamber set on a universal stage (Leica 11600234) on a confocal laser scanning microscope (TCS SP5 available from Leica), and adhered gently and tightly to the glass surface at the bottom of the chamber. […] Further, there is an excellent effect that in the space sandwiched by the metal guides, the perfusion solution flows smoothly as a laminar flow and quick solution exchange is possible.\nA perfusion solution feeding system is equipped with one 60 mL cylinder for a control solution and five 10 mL cylinders for agent feeding, which can be switched as needed by a magnetic valve to allow perfusion. In experiments according to the present invention, a 5.6 mM glucose-containing HEPES solution for image acquisition was administered using the 60 mL cylinder and a mixed solution of 2-PBLG/2-NBDLG/2-TRLG, a mixed solution of 2-PBDG/2-TRLG, or a mixed solution of 2-PBLG/2-TRLG was administered using one of the five 10 mL cylinders. As described below, to avoid generation of bubbles in the perfusion chamber, both the solutions were heated beforehand, combined in one tube before being introduced into the perfusion chamber, the flow rate thereof being controlled by a flow rate controller, then, heated again by an inline heater and fed to the perfusion chamber on the confocal microscope.\nA laser scan confocal microscope (manufactured by Leica, TCS-SP5 system, microscope body is DMI6000 CS trino electromotive inverted microscope) was used in conventional mode. Regarding laser used, a 405 nm diode laser was used for excitation of 2-PBLG and 2-PBDG, excitation of a mixed solution of 2-PBLG (or 2-PBDG) and 2-TRLG with a single light source, or live staining of nucleus by DAPI. The irradiation intensity was appropriately adjusted in accordance with the fluorescent pigment used so as to obtain sufficient observation intensity by an acoustic optical polarization element (Acoustic Optical Tunable Filter, AOTF). 2-NBDLG and 2-TRLG were excited by 488 nm Argon laser. The scan speed was 200 Hz or 400 Hz.\nIn fluorescence detection, a photomultiplier detector (PMT) 1 was used for detection of blue fluorescence by 2-PBDG or 2-PBLG and images were acquired in a wavelength detection range set at 415-580 nm in the case of detection of bicolor of 2-PBLG/2-TRLG and in a wavelength detection range set at 415-500 nm in the case of detection of tricolor of 2-PBLG/2-NBDLG/2-TRLG. For detection of green fluorescence by 2-NBDLG, PMT2 (called green channel, the same shall apply hereinafter) was used in a wavelength detection range of 500-580 nm. For detection of red fluorescence by 2-TRLG, PMT3 (called red channel, the same shall apply hereinafter) was used in a wavelength detection range of 580-740 nm. […]",
  "key": {"[1]": {"conditions": "mixed solution 100 μM 2-PBLG and 20 μM 2-TRLG"}},
  "data": [
    {"smiles": "O=C(NC1C(O)OC(CO)[C@H](O)C1O)c1cc2cc(F)c(O)c(F)c2oc1=O", "note": "(stereo partly drawn) [2-PBLG, 2-Deoxy-2-((6,8-difluoro-7-hydroxycoumarin-3-yl)carboxamido)-L-glucose]", "values": [
      {"measurement": "fluorescence of cells in the cell cluster 8 minutes after initiation of washout", "setting": "[1]", "result": "scattered around the outer edge of the center of a cell cluster"},
      {"measurement": "fluorescence of cells in the cell cluster 12 minutes after initiation of washout", "setting": "[1]", "result": "still multiple cells showing the strongly positive signal"},
      {"measurement": "fluorescence of cells in the cell cluster 2 minutes after initiation of washout", "setting": "mixed solution 100 μM 2-PBLG and 20 μM 2-TRLG, administered 5 minutes, MIN6 cluster day 13", "result": "extremely intense blue fluorescence is emitted from some cells"},
      {"measurement": "fluorescence of cells in the cancer cell cluster 12 minutes after completion of administration", "setting": "mixed solution 100 μM 2-PBLG, 100 μM 2-NBDLG, 20 μM 2-TRLG", "result": "emit blue fluorescence by 2-PBLG continuously"},
      {"measurement": "fluorescence of cells in the cancer cell cluster 8 minutes after completion of administration", "setting": "mixed solution 100 μM 2-PBLG, 100 μM 2-NBDLG, 20 μM 2-TRLG, MIN6 cluster day 13", "result": "intense blue fluorescence by 2-PBLG is maintained continuously"}
    ]}
  ]
}
